Measured values reported in US20240293424A1, “CARNITINE-PALMITOYL-TRANSFERASE-1 (CPT-1) INHIBITORS FOR USE IN A METHOD OF PREVENTING OR TREATING SEPSIS IN A MAMMALIAN SUBJECT” (2N PHARMA APS, priority 2021, published 2024).

What was measured:
[1] = system: CLP-induced mouse model of sepsis; experiment: Cecal ligation and puncture (CLP)-induced mouse model of sepsis; assay type: in vivo; conditions: CLP mice, 5 mg/kg p.o. 1 h after onset of CLP, assessed 24 h after CLP
Text: This study was be carried out on 10-week old, male C57BL/6 mice (n=5-10 per group) (Charles River Laboratories UK Ltd., Kent, UK) weighing 20-30 g kept under standard laboratory conditions. The animals were allowed to acclimatise to laboratory conditions for at least one week before undergoing experiments. Six mice were housed together in ventilated cages lined with absorbent bedding material. Tubes and chewing blocks were placed in all cages for environmental enrichment. All animals were subjected to 12-h light and dark cycles and the temperature was maintained at 19-23° C. All animals had access to a chow diet and water ad libitum. The cages were cleaned approximately every three days, with water being changed daily. […]
Ten-week-old, male C57BL/6 mice were injected with buprenorphine (0.05 mg/kg, i.p.). […] Temperature was monitored via a rectal probe and kept at 37° C. by a homeothermic mat. […] After 24 h, cardiac function was assessed by echocardiography in vivo. […] The organs (heart, lungs, liver, kidney, spleen) and blood was collected for further analysis to quantify organ injury/dysfunction. […]
Cardiac function in mice was assessed by echocardiography in vivo by means of the Vevo 3100 imaging system (VisualSonics, Toronto, Ontario, Canada). […] During echocardiography, the heart rate was recorded, and a rectal thermometer was recorded to measure core body temperature. […]

HEK293 cells = experiment: Fatty acid uptake assay using HEK293 cells; assay type: cell-based; conditions: Homo sapiens, racemic mixture, FIG. 1
Protocol: HEK293 cells were thawed and centrifuged at 400 g in 1 min, whereafter the supernatant was discarded. The cells were resuspended in DMEM+GlutaMax medium (cat #10566016, Invitrogen) containing 10% fetal calf serum (cat #10270-106, Invitrogen) and 1% penicillin/streptomycin (cat #15140-122, Life Technologies). HEK293 cells were seeded into a T25 flask and incubated at 37 degrees Celsius until 80% confluency. When the HEK293 cells reached confluency, cells were counted and seeded in a 96-well plate and with a volume of 10.000 cells/well in medium (as described above) and incubated overnight. Three wells were without cells serving as controls.
The cells were divided into two groups: 1) Example 1, and 2) Untreated. The fatty acid uptake assay (cat #408-100, BioVision) was carried out according to the protocol from BioVision. The only exception to the protocol was that the measurements in the PerkinElmer Multimode Plate Reader Enspire instrument was running overnight.
Statistics was performed in GraphPad Prism version 8.0. Repeated measure two-way ANOVA were conducted as the groups were tested multiple times followed by a multiple comparison Bonferroni post hoc test.

For `CC(=O)N1CCC(c2nc(-c3ccncc3)cs2)N(C(=O)COc2ccccc2)CC1` (single isomer, unassigned) [Example 1, 1-(4-acetyl-7-(4-(pyridin-4-yl)thiazol-2-yl)-1,4-diazepan-1-yl)-2-phenoxyethan-1-one], which heart rate ([1]; FIG. 2A) is on record?
The heart rate was “maintained”.

What about the pulmonary artery flow ([1]; FIG. 2G) of the same molecule?
Its pulmonary artery flow is “maintained”.

What about the IC50 (HEK293 cells) of the same molecule?
The IC50 was 300 nM.
